Reference: patent publication US20230109839A1, “THERAPEUTIC AGENT FOR TAUOPATHIES” (SUMITOMO PHARMA CO., LTD., priority 2020, published 2023)
Entries after “also recorded” stand apart in the source; their conditions may differ.

Assays:
[1] = tested on: intracerebral tau aggregate accumulation; assay: Intracerebral tau aggregate accumulation in rTg4510 mice, tau PET with [18F] PM-PBB3, SUVR (Test 5); format: in vivo, mouse
Description: (§1) Test 5: Evaluation of Intracerebral Tau Aggregate Accumulation and Cerebral Atrophy Using rTg4510 Mice
(§2) This test is a test to evaluate the effects of the compounds on intracerebral tau aggregate accumulation and cerebral atrophy. The rTg4510 mice overexpress the human-type FTDP-17 mutant tau in the forebrain, and month-age-dependent intracerebral tau aggregate accumulation and cerebral atrophy are observed. The rTg4510 mice used herein were produced by mating Tg (tauP301L) 4510 mice (Stock No. 015815) and CaMKII-tTA mice (Stock No. 007004) purchased from The Jackson Laboratory and breeding them.
(§3) The test compound was administered as a mixed diet to rTg4510 mice from the age of 4 months, and PET scan and MRI were performed at the ages of 4, 6 and 8 months to quantitatively evaluate the amount of the intracerebral tau aggregate accumulated and cerebral atrophy. The PET scan was performed using MicroPET Focus 220 of Siemens Medical Solutions (0.851 mm thick (intercenter) 95 slices, 19.0 cm axial field of view (FOV), and 7.6 cm intra-section FOV). The administration of radioactive compound [^18F] PM-PBB3 (precursor obtained from Aprinoia) and the PET scan were performed in dimly lit after the mice was treated with 1.5% isoflurane anesthesia to avoid […] of the radioactive compound. The emission scan was performed for 60 minutes immediately after the intravenous administration of [^18F] PM-PBB3 (1 mCi) (3D list mode, energy window: 350-750 keV). Then, the list mode data sorted into 3D synograms were converted into 2D synograms by Fourier-rebinding (frames: 4×1, 8×2 and 8×5 minutes). The dynamic image for 60 minutes after the administration of [^18F] PM-PBB3 was reconstructed by a filter-corrected back projection with a 0.5 mm Hanning filter. Regions of interest (ROI) were set in multiple brain regions using PMOD image analysis software (PMOD Technology) with reference to the MRI templates and the PET reconstructed images. Tau aggregate accumulation was evaluated by calculating SUVR (Standardized uptake value ratio) with the cerebellum as a reference region, based on the added average of dynamic images from 40 minutes to 60 minutes.

APP-Tg mouse = assay: Evaluation of the cognitive function by novel object recognition test (NORT) in APP-Tg mice (Test 3); format: in vivo; set-up: key to Discrimination index: (novel − known search time)/(novel + known search time); details: for improvement of cognitive function (NORT), summary of the above results / improvement of cognitive function (NORT): APP-Tg mice; for improvement of cognitive function (NORT), summary of the above results: alone, with Elacridar or with ABT depending on the compound
Method: Test 3: Evaluation of the Cognitive Function by Novel Object Recognition Test (Hereinafter, Also Referred to as “NORT”)
The present test is for evaluating the improvement of cognitive function with the test compounds. When an APP-Tg mouse which is an AD (Alzheimer's disease) model mouse is evaluated by NORT, the memory for a familiar object decreases depending on the time interval between the first trial run (training) and the second trial run (test). For example, if the first trial run is done and 3 hours later the second one is done, there is no difference in the searching times between novel object and known object for the APP-Tg mouse, compared with a healthy mouse. Thus, the APP-Tg mouse suffers from significant amnesia.
The APP-Tg mouse used herein was prepared by constructing an expression cassette linked to human APP751 isoform to which Swedish (K670N/M671L) and Indiana (V717F) mutation were introduced at downstream of mouse Thy-1 promoter, then injecting the expression cassette into a mouse fertilized egg, and transplanting it to a host mouse. The prepared mouse presents with intracerebral AB accumulation and cognitive dysfunction from early on, and thus the mouse can be used for the evaluation of cognitive function. APP-Tg mouse has been also reported in Non-patent literature 6.
To the prepared APP-Tg mouse, the test compound was administered, and then the first trial run was done for the mouse 30 minutes after the intraperitoneal administration or after 10 days of mixed diet administration. The second trial run was done 3 hours after the first trial run, and the searching times between novel object and known object in the second trial were evaluated. The discrimination index was calculated from the searching time for novel object and known object in the second trial run, and the improvement of cognitive function of the test compound was confirmed by comparing the discrimination index with the test compound-unadministered group as an index of the cognitive function. The discrimination index was calculated by the following formula.
Discrimination index={(Searching time for novel object)−(Searching time for known object)}/{(Searching time for novel object)+(Searching time for known object)}
The present test can be also done with a combination with Elacridar (Tokyo Chemical Industry Co., Ltd.). Elacridar can inhibit P-gp and BCRP which are excretion transporters expressed in the blood-brain barrier and thereby Elacridar has the effect of improving the transferability of the test compound to the brain. Eracridal was orally administered to APP-Tg mice at 100 mg/kg 2 hours before the first trial run, and then the test compound was intraperitoneally administered to the mice 30 minutes before the first trial run according to the above method. And, the improvement of cognitive function was evaluated. The significant difference from the vehicle-administered group was determined using the parametric Dunnett multiple comparison test.
And, the present test can be also done with a combination with ABT (1-aminobenzotriazole) (Tokyo Chemical Industry Co., Ltd.). ABT has the effect of improving the blood concentration of the test compound by inhibiting CYP and suppressing metabolism. The test compound and ABT (1 mg/g-food) were administered with food to APP-Tg mice for 10 days, and then the improvement of cognitive function was evaluated according to the above method. The significant difference from the vehicle-administered group was determined using the parametric Dunnett multiple comparison test.

rTg4510 mice = assay: Cerebral atrophy in rTg4510 mice, MRI volume of brain regions (Test 5); format: in vivo, mouse; details: for volume cerebellum / volume cerebral neocortex / volume hippocampus / volume lateral ventricle: 5.8 mg/g-food from the age of 4 months; for age-dependent increase in lateral ventricular volume vs non-administration group: mixed diet 3 mg/g-food with ABT 1 mg/g-food
Description: as §1, §2, §3
The evaluation of cerebral atrophy was performed with horizontal superconducting magnet type MRI (7T, inner diameter 400 mm, self-shielding type, zero boil-off type). The imaging was performed under isoflurane anesthesia while maintaining the rectal temperature at 36.5±0.5° C. After Tripilot acquisition, the brain images were acquired by TurboRARE T2 emphasis sequence (TR: 4200 ms, TE: 36 ms, Fat-Sup: on, NA: 4, RARE factor: 8, scan time: 14 min) (FOV read: 25.6 mm, FOV P1: 14.5 mm, Slice thickness: 0.5 mm, number of slices: 28). The ROI of each brain region was set in each of the acquired slices, and the volume of the brain region was calculated by summing the ROI areas of all the slices to evaluate the effect of the test compound.

[2] = 4 month old, 5.8 mg/g-food from the age of 4 months
[3] = 6 month old, 5.8 mg/g-food from the age of 4 months
[4] = 8 month old, 5.8 mg/g-food from the age of 4 months
[5] = diet 5.8 mg/g-food from the age of 4 months
[6] = diet 5.8 mg/g-food from the age of 4 months, ages 4, 6 and 8 months, vs non-administration group
[7] = mixed diet 0.7 and 6.6 mg/g-food
[8] = 4 month old, 3 mg/g-food, with ABT 1 mg/g-food
[9] = 6 month old, 3 mg/g-food, with ABT 1 mg/g-food
[10] = 8 month old, 3 mg/g-food, with ABT 1 mg/g-food

With `CC1CCN(c2ccc(=O)n(CC(=O)Nc3ccc(C#N)cc3)n2)CC1` [Example 1, N-(4-Cyanophenyl)-2-[3-(4-methylpiperidin-1-yl)-6-oxopyridazin-1(6H)-yl]acetamide] the “SUVR(cerebellum ratio) cerebral neocortex” value [1, 2] was 0.986 ± 0.009, the “SUVR(cerebellum ratio) hippocampus” value [1, 2] was 1.078 ± 0.009 and the “SUVR(cerebellum ratio) cerebral neocortex” value [1, 3] was 1.098 ± 0.013. The “SUVR(cerebellum ratio) hippocampus” value [1, 3] was 1.182 ± 0.016, the “SUVR(cerebellum ratio) cerebral neocortex” value [1, 4] was 1.184 ± 0.017 and the “SUVR(cerebellum ratio) hippocampus” value [1, 4] was 1.284 ± 0.024. The “age-dependent increase in SUVR in the cerebral neocortex and hippocampus (FIG. 3)” value [1, 5] was “statistically significantly suppressed”, the “increase in tau PET tracer accumulation in each region with aging (SUVR average images, FIG. 1)” value [1, 6] was “significantly suppressed” and the “improvement of cognitive function (NORT), summary of the above results” value (“improvement … of the above results” for short) (APP-Tg mouse) was “some improvement of cognitive function”. It also gave a Discrimination index (APP-Tg mouse; APP-Tg mouse, 30 minutes before first trial run) of 0.25, a Discrimination index (APP-Tg mouse; APP-Tg mouse, dose 3 (mg/g i.p.), 30 minutes before first trial run) of 0.12 and a Discrimination index (APP-Tg mouse; APP-Tg mouse, dose 10 (mg/g i.p.), 30 minutes before first trial run) of 0.22. For the same molecule, the “improvement of cognitive function, significant difference from the vehicle-administered group” value (APP-Tg mouse; APP-Tg mouse, intraperitoneal doses of 10 and 30 mg/kg, parametric Dunnett multiple comparison test) was “statistically significant”, the “improvement of cognitive function (NORT, discrimination index)” value (APP-Tg mouse; APP-Tg mouse, intraperitoneally 3, 10 and 30 mg/kg 30 minutes before the first trial run) was “dose-dependent improvement of cognitive function” and the volume cerebellum (rTg4510 mice; 4 month old) was 34.3 ± 0.19 mm^3. The volume cerebral neocortex (rTg4510 mice; 4 month old) was 60.1 ± 0.49 mm^3, the volume hippocampus (rTg4510 mice; 4 month old) was 14.0 ± 0.13 mm^3 and the volume lateral ventricle (rTg4510 mice; 4 month old) was 0.79 ± 0.014 mm^3. The volume cerebellum (rTg4510 mice; 6 month old) was 33.9 ± 0.18 mm^3, the volume cerebral neocortex (rTg4510 mice; 6 month old) was 50.9 ± 0.98 mm^3 and the volume hippocampus (rTg4510 mice; 6 month old) was 12.6 ± 0.22 mm^3. It also gave a volume lateral ventricle (rTg4510 mice; 6 month old) of 1.70 ± 0.312 mm^3, a volume cerebellum (rTg4510 mice; 8 month old) of 33.4 ± 0.33 mm^3 and a volume cerebral neocortex (rTg4510 mice; 8 month old) of 45.3 ± 1.13 mm^3. For the same molecule, the volume hippocampus (rTg4510 mice; 8 month old) was 12.7 ± 0.12 mm^3, the volume lateral ventricle (rTg4510 mice; 8 month old) was 0.61 ± 0.036 mm^3 and the “age-dependent cerebral atrophy in the cerebral neocortex and hippocampus (volume, FIG. 2)” value (rTg4510 mice; [5]) was “statistically significantly suppressed”. The “age-dependent increase in the lateral ventricular volume (FIG. 2)” value (rTg4510 mice; [5]) was “statistically significantly suppressed” and the “cerebral atrophy and enlargement of the lateral ventricle with aging (T2-weighted images, FIG. 1)” value (rTg4510 mice; [6]) was “significantly suppressed”.

In the case of `CC1CC=C(c2cnc3cnn(CC(=O)Nc4ccn5ncnc5c4)c3n2)CC1` (stereo not drawn) [Example 577, 2-[6-(4-methylcyclohex-1-en-1-yl)-1H-pyrazolo[3,4-b]pyrazin-1-yl]-N-([1,2,4]triazolo[1,5-a]pyridin-7-yl)acetamide], the “individuals that did not show any increase in the SUVR from the age of 6 months to the age of 8 months” value ([1]; mixed diet 0.7 mg/g-hood administration group) is reported as 3 out of 5, the “individuals that did not show any increase in the SUVR from the age of 6 months to the age of 8 months” value ([1]; mixed diet 6.6 mg/g-hood administration group) is reported as 3 out of 6 and the “accumulation of tau aggregates (suggested from SUVR)” value [1, 7] is reported as “suppressed”. For the same molecule, the “improvement of cognitive function (NORT)” value (APP-Tg mouse; Elacridar orally 100 mg/kg 2 hours before, test compound intraperitoneally 30 minutes before the first trial run, 100 mg/kg) was “some improvement of cognitive function; also recorded: strong improvement of cognitive function”, the “improvement … of the above results” value (APP-Tg mouse) was “some improvement of cognitive function” and the Discrimination index (APP-Tg mouse; APP-Tg mouse, dose 10 (mg/g i.p.), with Elacridar 100 mg/kg orally 2 hours before first trial run) was 0.13. For the same molecule, the Discrimination index (APP-Tg mouse; APP-Tg mouse, with Elacridar 100 mg/kg orally 2 hours before first trial run) was 0.21 and the “suppression of cerebral atrophy” value (rTg4510 mice; [7]) was “no suppression”.

With `CN(c1ncc2cnn(CC(=O)Nc3ccn4ncnc4c3)c2n1)C1CCCC1` [Example 795, 2-{6-[cyclopentyl(methyl)amino]-1H-pyrazolo[3,4-d]pyrimidin-1-yl}-N-([1,2,4]triazolo[1,5-a]pyridin-7-yl)acetamide] the “SUVR(cerebellum ratio) cerebral neocortex” value [1, 8] was 1.023 ± 0.009, the “SUVR(cerebellum ratio) hippocampus” value [1, 8] was 1.134 ± 0.042 and the “SUVR(cerebellum ratio) cerebral neocortex” value [1, 9] was 1.149 ± 0.031. The “SUVR(cerebellum ratio) hippocampus” value [1, 9] was 1.308 ± 0.044, the “SUVR(cerebellum ratio) cerebral neocortex” value [1, 10] was 1.268 ± 0.036 and the “SUVR(cerebellum ratio) hippocampus” value [1, 10] was 1.419 ± 0.048. For the same molecule, the “age-dependent increase in SUVR in the cerebral neocortex and hippocampus (FIG. 5)” value ([1]; mixed diet 3 mg/g-food with ABT 1 mg/g-food) was “tended to be suppressed”, the “increase in PET tracer accumulation in each brain region with aging (average SUVR images, FIG. 4)” value ([1]; mixed diet 3 mg/g-food with ABT 1 mg/g-food, ages 4, 6 and 8 months) was “suppressed” and the “improvement … of the above results” value (APP-Tg mouse) was “some improvement of cognitive function”. For the same molecule, the “improvement of cognitive function (NORT)” value (APP-Tg mouse; test compound and ABT (1 mg/g-food) administered with food for 10 days) was “some improvement of cognitive function”, the Discrimination index (APP-Tg mouse; APP-Tg mouse, dose 0.2 mg/g-food for 10 days, with ABT 1 mg/g-food) was 0.30 and the Discrimination index (APP-Tg mouse; APP-Tg mouse, dose 2 mg/g-food for 10 days, with ABT 1 mg/g-food) was 0.27. The “age-dependent increase in lateral ventricular volume vs non-administration group” value (rTg4510 mice; at the age of 6 months) was “tendency to suppress” and the “age-dependent increase in lateral ventricular volume vs non-administration group” value (rTg4510 mice; at the age of 8 months) was “not different”.
